Values after ≈ are worked out from the molar mass of the structure shown.
Conditions: not given

First: C=CCOCCO
Second: CCCOC(=O)CCC(=O)OCCC
The logP of the first is lower: -0.1 for the first, 2.16 for the second.

Going from `CC(C)CC(=O)OCc1ccccc1` to `COP(N)(=S)Oc1ccccc1C(=O)OC(C)C` (stereo unspecified), the logP falls from 3.26 to 2.7.

Compared with `CN(C)P(=O)(N1CCCC1)N1CCCC1`, `O=P(N1CCCC1)(N1CCCC1)N1CCCC1` is lower in logP: 1.88 for the first, 1.67 for the second.

Going from `CC(C)OC(=O)c1cc(=O)[nH]c(=O)[nH]1` to `COc1sc(C(=O)Nc2nn[nH]n2)c(OC(C)C)c1Br`, the logP rises from 0.81 to 1.35.

Going from `COc1c(Cl)cc(Cl)c(Cl)c1Cl` to `Cc1cc(Cl)c(Cl)cc1Cc1ccc(Cl)cc1Cl`, the logP rises from 4.75 to 7.41.

Going from `OCc1c(F)cccc1F` to `Oc1cccc2ncccc12`, the logP rises from 1.12 to 1.85.

First: Brc1cc(Br)c(Oc2cc(Br)c(Br)c(Br)c2)cc1Br
Second: O=[N+]([O-])c1ccc(Oc2c(Cl)cc(Cl)cc2Cl)cc1
The logP of the first is higher: 7.4 for the first, 4.97 for the second.

`O=C(O)/C=C/C(=O)c1cccnc1` and `NC(=O)CC[C@H](NS(=O)(=O)c1ccccc1)C(=O)O` are within 0.2 log units of each other in logP: 0.26 for the first, 0.33 for the second.

Compared with `COCc1ccc(COC)cc1`, `CSCCCOc1ccc([N+](=O)[O-])cc1` is higher in logP: 1.28 for the first, 3.24 for the second.

Going from `Cc1ccccc1OCCNc1ccccc1C(N)=O` to `O=C(O)c1ccccc1Nc1cccc(Cl)c1`, the logP rises from 2.94 to 5.43.

Going from `COc1cc(N=Nc2c(Br)cc([N+](=O)[O-])cc2[N+](=O)[O-])c(NC(C)=O)c(N(CCOC(C)=O)CCOC(C)=O)c1` to `CCCCC(=O)OCN1C(=O)NC(c2ccccc2)(c2ccccc2)C1=O`, the logP falls from 4.44 to 3.9.

Going from `C=CCSCC1Nc2cc(Cl)c(S(N)(=O)=O)cc2S(=O)(=O)N1` (stereo unspecified) to `Clc1ccc(Cn2cncn2)cc1Cl`, the logP rises from 1.17 to 2.54.

Going from `N=C(N)NN=C1C=CC(=NNC(N)=O)C=C1` to `CC(C)(C#N)/N=N/C(C)(C)C#N`, the logP falls from 1.56 to 1.1.

With `N#CCCC#N` the logP was -0.99.

Same assay, conditions: 20 °C

First: CC1=C(c2ccccc2)C(=O)N(C(C)(C)c2cc(Cl)cc(Cl)c2)CO1
Second: Clc1ccc(-c2ccc(Cl)cc2)cc1
The solubility of the first is 1.7-fold higher: 0.000478 mM (≈ 0.00018 mg/mL) for the first, 0.000278 mM (≈ 6.2e-05 mg/mL) for the second.

Going from `CC1CCC(O)CC1` (stereo unspecified) to `C=C(C)[C@H]1Cc2c(ccc3c2O[C@@H]2COc4cc(OC)c(OC)cc4[C@@H]2C3=O)O1`, the solubility falls from 131 mM (≈ 15 mg/mL) to 0.000507 mM (≈ 0.0002 mg/mL).

First: COCc1cnc(C2=NC(C)(C(C)C)C(=O)N2)c(C(=O)O)c1 (stereo unspecified)
Second: CS(=O)(=O)F
The solubility of the first is 21-fold lower: 14.5 mM (≈ 4.41 mg/mL) for the first, 306 mM (≈ 30 mg/mL) for the second.

`CC(CO)(CO)[N+](=O)[O-]` and `C=CC(=O)NCO` are within 1.5-fold of each other in solubility: 5920 mM (≈ 800 mg/mL) for the first, 6460 mM (≈ 653 mg/mL) for the second.

Same assay, conditions: 22 °C

First: CCOC(=O)CC(SP(=O)(OC)OC)C(=O)OCC (stereo unspecified)
Second: O=[N+]([O-])c1ccc(Oc2c(Cl)cc(Cl)cc2Cl)cc1
The solubility of the first is 10000-fold higher: 23.9 mM (≈ 7.5 mg/mL) for the first, 0.0024 mM (≈ 0.000764 mg/mL) for the second.

Same assay, conditions: 23 °C

In the case of `CC1=CCC(=C(C)C)CC1`, the solubility is reported as 0.0697 mM (≈ 0.0095 mg/mL).

Same assay, conditions: 23.0 °C

Going from `CC(=O)C(C)CO` (stereo unspecified) to `CC(=O)CC(C)(C)O`, the log10 OH rate constant (cm³/molecule/s) falls from -10.8 to -11.4.

Work on `CCC/C=C/C=O` yielded a log10 OH rate constant (cm³/molecule/s) of -10.4.

Same assay, conditions: 24 °C

Going from `N#CSCSc1nc2ccccc2s1` to `CCCCN(C)N=O`, the solubility rises from 0.524 mM (≈ 0.125 mg/mL) to 200 mM (≈ 23.2 mg/mL) (380-fold).

Same assay, conditions: 25 °C

Compared with `Oc1ccc(Cl)c2cccnc12`, `CCc1ccccc1O` is 410-fold higher in solubility: 0.106 mM (≈ 0.019 mg/mL) for the first, 43.7 mM (≈ 5.34 mg/mL) for the second.

Going from `CC(C)CCCCCOC(=O)c1ccccc1C(=O)OCCCCCC(C)C` to `CCCCCCCCCCCCN`, the solubility rises from 0.00023 mM (≈ 9e-05 mg/mL) to 0.421 mM (≈ 0.078 mg/mL) (1800-fold).

Going from `CCN(CC)c1ccccc1` to `c1ccc2c(c1)ccc1c3ccccc3ccc21`, the solubility falls from 0.938 mM (≈ 0.14 mg/mL) to 8.76e-06 mM (≈ 2e-06 mg/mL).

First: N#CCC#N
Second: CC(C)(C#N)/N=N/C(C)(C)C#N
The solubility of the first is 940-fold higher: 2010 mM (≈ 133 mg/mL) for the first, 2.13 mM (≈ 0.35 mg/mL) for the second.

Compared with `CN/C(=N\C#N)NCCSCc1nc[nH]c1C`, `Cc1ncc(CO)c(CN)c1O` is 72-fold higher in solubility: 41 mM (≈ 10.3 mg/mL) for the first, 2970 mM (≈ 500 mg/mL) for the second.

`CC(N)=S` and `COC(C)(C)CC(C)=O` are within 1.5-fold of each other in solubility: 2170 mM (≈ 163 mg/mL) for the first, 2150 mM (≈ 280 mg/mL) for the second.

First: C=CCCCCCCCC
Second: CCCCCCCCCCCCC
The solubility of the first is 160-fold higher: 0.00406 mM (≈ 0.00057 mg/mL) for the first, 2.55e-05 mM (≈ 4.7e-06 mg/mL) for the second.

Compared with `CCCCCCCCCCCCCCCCCO`, `CCCCCCCCCCCCCCC` is 87-fold lower in solubility: 3.12e-05 mM (≈ 8e-06 mg/mL) for the first, 3.58e-07 mM (≈ 7.6e-08 mg/mL) for the second.

Going from `c1ccc2nc(-c3ccc4ccccc4n3)ccc2c1` to `Nc1ccc(Cc2ccc(N)cc2)cc1`, the solubility rises from 0.00398 mM (≈ 0.00102 mg/mL) to 5.04 mM (≈ 1 mg/mL) (1300-fold).

Going from `ClC1=C(Cl)C(Cl)(Cl)C(Cl)=C1Cl` to `CCC(C)n1c(=O)[nH]c(C)c(Br)c1=O` (stereo unspecified), the solubility rises from 0.0066 mM (≈ 0.0018 mg/mL) to 3.12 mM (≈ 0.815 mg/mL) (470-fold).

Compared with `Cc1ccc(C)cc1`, `FC(Cl)C(F)(F)F` (stereo unspecified) is 7.2-fold higher in solubility: 1.53 mM (≈ 0.162 mg/mL) for the first, 11 mM (≈ 1.5 mg/mL) for the second.

Going from `BrC1CCCCC1` to `O=C(O)CBr`, the solubility rises from 5.08 mM (≈ 0.828 mg/mL) to 12600 mM (≈ 1750 mg/mL) (2500-fold).

Same assay, conditions: 25.0 °C

Compared with `CCOCC=O`, `COC(=O)CCCCC(=O)OC` is lower in log10 OH rate constant (cm³/molecule/s): -10.8 for the first, -11.1 for the second.

Going from `CC1(C)C2CCC(=O)C1C2` (stereo unspecified) to `CC1=CCC(=C(C)C)CC1`, the log10 OH rate constant (cm³/molecule/s) rises from -10.8 to -9.65.

Compared with `FC(F)(F)CC(F)(F)F`, `CC(F)(F)CC(F)(F)F` is higher in log10 OH rate constant (cm³/molecule/s): -15 for the first, -14.1 for the second.

First: Clc1ccc(-c2ccc(Cl)cc2)cc1
Second: CC(Cl)C(C)Cl (stereo unspecified)
The log10 OH rate constant (cm³/molecule/s) of the first is higher: -11.7 for the first, -12 for the second.

`FC(Cl)C(F)(F)Cl` (stereo unspecified) and `FCC(F)(F)C(F)F` are within 0.2 log units of each other in log10 OH rate constant (cm³/molecule/s): -13.9 for the first, -14 for the second.

Same assay, conditions: 27.0 °C

`O=C1C=CC(=O)C=C1` showed a log10 OH rate constant (cm³/molecule/s) of -11.3.

Same assay, conditions: 30 °C

Compared with `COc1ccccc1[N+](=O)[O-]`, `Cc1ccc([N+](=O)[O-])cc1` is 3.4-fold lower in solubility: 11 mM (≈ 1.69 mg/mL) for the first, 3.22 mM (≈ 0.442 mg/mL) for the second.

In the case of `Brc1ccccc1`, the solubility is reported as 2.84 mM (≈ 0.446 mg/mL).

— the OPERA property sets (Mansouri et al. 2018)
